# Data taken from patent US9981004B2, “Inhibition of TREM receptor signaling with peptide variants” (SignaBlok, Inc., priority 2009, dated 2018).
# Assay: Solubility of CP and CP-A peptides
# Format: physicochemical
# Source text: A variety of solvents and carriers can be tested to improve their solubility. Solvents and/or carriers that improve solubility of CP and CP-A include, but are not limited to, ethanol, dimethylsulphoxide (DMSO), dimethyl formamide (DMF), and trifluoracetic acid (TFA). When using DMSO as a solvent, the final concentration used in the cell function experiments may range from 0.063%-0.250%. Stock solutions of CP and CP-A can be prepared in DMSO and used at a 1:2000, 1:1000, or 1:400 dilution. In one embodiment, drug delivery systems (i.e., for example, lipid vesicles) can be used to increase solubility and bioavailability of CP and CP-A.
row,Substance,solubility in aqueous solutions
1,"H-GFLSKSLVF-OH [CP, NH2-Gly-Phe-Leu-Ser-Lys-Ser-Leu-Val-Phe-OH]",insoluble in aqueous solutions
2,"H-GFLSASLVF-OH [CP-A, NH2-Gly-Phe-Leu-Ser-Ala-Ser-Leu-Val-Phe-OH]",insoluble in aqueous solutions
